Values after ≈ are worked out from the molar mass of the structure shown.
Legend:
Klebsiella pneumoniae = experiment: Antibacterial activity against Klebsiella pneumoniae ATCC 700603 after 15 to 18 hrs under aerobic condition by modified broth microdilution method; assay type: functional
Candida albicans [1] = experiment: Antifungal activity against Candida albicans ATCC 10231 after 15 to 18 hrs under aerobic condition by modified broth microdilution method; assay type: functional
Escherichia coli [2] = experiment: Antibacterial activity against Escherichia coli ATCC 35218 after 15 to 18 hrs under aerobic condition by modified broth microdilution method; assay type: functional
L929 = experiment: Cytotoxicity against mouse L929 cells up to 200 ug/mL after 5 days by MTT assay; assay type: cell-based; conditions: l929, 120 h
Staphylococcus aureus [3] = experiment: Antibacterial activity against methicillin-resistant Staphylococcus aureus DSM 50128509 after 15 to 18 hrs under aerobic condition by modified broth microdilution method; assay type: functional
Staphylococcus aureus [4] = experiment: Antibacterial activity against methicillin-resistant Staphylococcus aureus DSM 50128509; assay type: functional, organism-based
[5] = system: Staphylococcus epidermidis; experiment: Antibacterial activity against methicillin-resistant Staphylococcus epidermidis DSM 50160384 after 15 to 18 hrs under aerobic condition by modified broth microdilution method; assay type: functional
Pseudomonas aeruginosa = experiment: Antibacterial activity against Pseudomonas aeruginosa ATCC 9027 after 15 to 18 hrs under aerobic condition by modified broth microdilution method; assay type: functional
Candida albicans [6] = experiment: Antifungal activity against Candida albicans ATCC 10231; assay type: functional, organism-based
[7] = system: Staphylococcus epidermidis; experiment: Antibacterial activity against methicillin-resistant Staphylococcus epidermidis DSM 50160384; assay type: functional, organism-based
Escherichia coli [8] = experiment: Antibacterial activity against Escherichia coli ATCC 35218; assay type: functional, organism-based

In the case of `CC(C)c1nc(C[C@H](NC(=O)[C@H](Cc2c[nH]c3ccccc23)NC(=O)OC(C)(C)C)C(=O)NCc2ccccc2)c[nH]1`, the MIC (Klebsiella pneumoniae) was > 200 µg/mL, the MIC (Candida albicans [1]) was > 200 µg/mL and the MIC (Escherichia coli [2]) was > 200 µg/mL. The Activity (L929) was “Non-toxic”, the MIC (Staphylococcus aureus [3]) was 200 µg/mL (≈ 349 µM) and the IC50 (Staphylococcus aureus [4]) was 10.3 µg/mL (≈ 17.9 µM). For the same molecule, the MIC [5] was > 200 µg/mL and the MIC (Pseudomonas aeruginosa) was > 200 µg/mL.
For `CC(C)(C)OC(=O)N[C@@H](Cc1c[nH]c2ccccc12)C(=O)N[C@@H](Cc1c[nH]c(C2CCC2)n1)C(=O)NCc1ccccc1`, the IC50 (Candida albicans [6]) was 33.2 µg/mL (≈ 56.7 µM), the MIC (Klebsiella pneumoniae) was > 200 µg/mL and the MIC (Candida albicans [1]) was 200 µg/mL (≈ 342 µM). The MIC (Escherichia coli [2]) was > 200 µg/mL, the Activity (L929) was “Non-toxic” and the MIC (Staphylococcus aureus [3]) was 200 µg/mL (≈ 342 µM). The IC50 (Staphylococcus aureus [4]) was 22.4 µg/mL (≈ 38.2 µM), the MIC [5] was > 200 µg/mL and the MIC (Pseudomonas aeruginosa) was > 200 µg/mL.
`CC(C)(C)OC(=O)N[C@@H](Cc1c[nH]c2ccccc12)C(=O)N[C@@H](Cc1c[nH]c(C(C)(C)C)n1)C(=O)NCc1ccccc1` was tested, and the MIC (Klebsiella pneumoniae) was > 200 µg/mL, the MIC (Candida albicans [1]) was > 200 µg/mL and the MIC (Escherichia coli [2]) was > 200 µg/mL. For the same molecule, the Activity (L929) was “Non-toxic”, the MIC (Staphylococcus aureus [3]) was > 200 µg/mL and the MIC [5] was > 200 µg/mL. The MIC (Pseudomonas aeruginosa) was > 200 µg/mL.
With `COC(=O)[C@H](Cc1c[nH]c(C(C)C)n1)NC(=O)[C@H](Cc1c[nH]c2ccccc12)NC(=O)OC(C)(C)C` the MIC (Klebsiella pneumoniae) was > 200 µg/mL, the MIC (Candida albicans [1]) was > 200 µg/mL and the MIC (Escherichia coli [2]) was > 200 µg/mL. The Activity (L929) was “Non-toxic”, the MIC (Staphylococcus aureus [3]) was > 200 µg/mL and the MIC [5] was > 200 µg/mL. For the same molecule, the MIC (Pseudomonas aeruginosa) was > 200 µg/mL.
With `CC(C)(C)c1nc(C[C@H](N)C(=O)N[C@@H](CCCNC(=N)N)C(=O)NCc2ccccc2)c[nH]1` the IC50 [7] was 3.13 µg/mL (≈ 6.86 µM), the MIC (Klebsiella pneumoniae) was > 200 µg/mL and the MIC (Candida albicans [1]) was > 200 µg/mL. The MIC (Escherichia coli [2]) was > 200 µg/mL, the Activity (L929) was “Non-toxic” and the MIC (Staphylococcus aureus [3]) was 20 µg/mL (≈ 43.8 µM). For the same molecule, the IC50 (Staphylococcus aureus [4]) was 4.18 µg/mL (≈ 9.15 µM), the MIC [5] was 10 µg/mL (≈ 21.9 µM) and the MIC (Pseudomonas aeruginosa) was > 200 µg/mL.
`CC(C)(C)OC(=O)N[C@@H](Cc1c[nH]c(C2CCCCC2)n1)C(=O)N[C@@H](CCCNC(=N)N)C(=O)NCc1ccccc1` was tested, and the IC50 [7] was 18.4 µg/mL (≈ 31.6 µM), the MIC (Klebsiella pneumoniae) was > 200 µg/mL and the MIC (Candida albicans [1]) was > 200 µg/mL. The MIC (Escherichia coli [2]) was 200 µg/mL (≈ 343 µM), the Activity (L929) was “Non-toxic” and the MIC (Staphylococcus aureus [3]) was 100 µg/mL (≈ 172 µM). For the same molecule, the IC50 (Staphylococcus aureus [4]) was 12.1 µg/mL (≈ 20.7 µM), the MIC [5] was 100 µg/mL (≈ 172 µM) and the MIC (Pseudomonas aeruginosa) was > 200 µg/mL.
With `CC(C)c1nc(C[C@H](NC(=O)[C@@H](N)Cc2c[nH]c3ccccc23)C(=O)NCc2ccccc2)c[nH]1` the IC50 [7] was 12.8 µg/mL (≈ 27.1 µM), the MIC (Klebsiella pneumoniae) was > 200 µg/mL and the MIC (Candida albicans [1]) was > 200 µg/mL. For the same molecule, the MIC (Escherichia coli [2]) was > 200 µg/mL, the Activity (L929) was “Non-toxic” and the MIC (Staphylococcus aureus [3]) was > 200 µg/mL. For the same molecule, the MIC [5] was 100 µg/mL (≈ 212 µM) and the MIC (Pseudomonas aeruginosa) was > 200 µg/mL.
In the case of `COC(=O)[C@H](Cc1c[nH]c(C2CCC2)n1)NC(=O)[C@H](Cc1c[nH]c2ccccc12)NC(=O)OC(C)(C)C`, the IC50 (Escherichia coli [8]) was 24.6 µg/mL (≈ 48.3 µM), the IC50 [7] was 5.44 µg/mL (≈ 10.7 µM) and the MIC (Klebsiella pneumoniae) was > 200 µg/mL. The MIC (Candida albicans [1]) was > 200 µg/mL, the MIC (Escherichia coli [2]) was 200 µg/mL (≈ 392 µM) and the Activity (L929) was “Non-toxic”. It also gave an MIC (Staphylococcus aureus [3]) of 100 µg/mL (≈ 196 µM), an IC50 (Staphylococcus aureus [4]) of 2.95 µg/mL (≈ 5.79 µM) and an MIC [5] of 100 µg/mL (≈ 196 µM). For the same molecule, the MIC (Pseudomonas aeruginosa) was > 200 µg/mL.
For `COC(=O)[C@H](CCCNC(=N)N)NC(=O)[C@@H](N)Cc1c[nH]c(C(C)C)n1`, the IC50 (Escherichia coli [8]) was 9.98 µg/mL (≈ 27.2 µM), the IC50 [7] was 5.42 µg/mL (≈ 14.8 µM) and the MIC (Klebsiella pneumoniae) was > 200 µg/mL. For the same molecule, the MIC (Candida albicans [1]) was > 200 µg/mL, the MIC (Escherichia coli [2]) was 200 µg/mL (≈ 544 µM) and the Activity (L929) was “Non-toxic”. For the same molecule, the MIC (Staphylococcus aureus [3]) was 50 µg/mL (≈ 136 µM), the IC50 (Staphylococcus aureus [4]) was 4.82 µg/mL (≈ 13.1 µM) and the MIC [5] was 50 µg/mL (≈ 136 µM). The MIC (Pseudomonas aeruginosa) was > 200 µg/mL.
For `N=C(N)NCCC[C@H](NC(=O)[C@@H](N)Cc1c[nH]c(C2CCC2)n1)C(=O)NCc1ccccc1`, the IC50 [7] was 3.94 µg/mL (≈ 8.67 µM), the IC50 (Candida albicans [6]) was 9.95 µg/mL (≈ 21.9 µM) and the MIC (Klebsiella pneumoniae) was > 200 µg/mL. For the same molecule, the MIC (Candida albicans [1]) was 100 µg/mL (≈ 220 µM), the MIC (Escherichia coli [2]) was > 200 µg/mL and the Activity (L929) was “Non-toxic”. For the same molecule, the MIC (Staphylococcus aureus [3]) was 50 µg/mL (≈ 110 µM), the IC50 (Staphylococcus aureus [4]) was 6.99 µg/mL (≈ 15.4 µM) and the MIC [5] was 50 µg/mL (≈ 110 µM). The MIC (Pseudomonas aeruginosa) was > 200 µg/mL.
In the case of `COC(=O)[C@H](CCCNC(=N)N)NC(=O)[C@@H](N)Cc1c[nH]c(C2CCCCC2)n1`, the IC50 [7] was 1.92 µg/mL (≈ 4.71 µM), the IC50 (Candida albicans [6]) was 27.5 µg/mL (≈ 67.6 µM) and the MIC (Klebsiella pneumoniae) was > 200 µg/mL. For the same molecule, the MIC (Candida albicans [1]) was 200 µg/mL (≈ 491 µM), the MIC (Escherichia coli [2]) was > 200 µg/mL and the Activity (L929) was “Non-toxic”. It also gave an MIC (Staphylococcus aureus [3]) of 50 µg/mL (≈ 123 µM), an IC50 (Staphylococcus aureus [4]) of 20.9 µg/mL (≈ 51.4 µM) and an MIC [5] of 10 µg/mL (≈ 24.5 µM). The MIC (Pseudomonas aeruginosa) was > 200 µg/mL.
For `COC(=O)[C@H](Cc1c[nH]c(C(C)(C)C)n1)NC(=O)[C@H](Cc1c[nH]c2ccccc12)NC(=O)OC(C)(C)C`, the IC50 (Escherichia coli [8]) was 16.3 µg/mL (≈ 31.8 µM), the IC50 [7] was 8.12 µg/mL (≈ 15.9 µM) and the MIC (Klebsiella pneumoniae) was > 200 µg/mL. The MIC (Candida albicans [1]) was > 200 µg/mL, the MIC (Escherichia coli [2]) was 200 µg/mL (≈ 391 µM) and the Activity (L929) was “Non-toxic”. The MIC (Staphylococcus aureus [3]) was 50 µg/mL (≈ 97.7 µM), the IC50 (Staphylococcus aureus [4]) was 4.35 µg/mL (≈ 8.5 µM) and the MIC [5] was 100 µg/mL (≈ 195 µM). The MIC (Pseudomonas aeruginosa) was > 200 µg/mL.
In the case of `CC(C)(C)c1nc(C[C@H](NC(=O)[C@@H](N)Cc2c[nH]c3ccccc23)C(=O)NCc2ccccc2)c[nH]1`, the IC50 [7] was 9.24 µg/mL (≈ 19 µM), the MIC (Klebsiella pneumoniae) was > 200 µg/mL and the MIC (Candida albicans [1]) was > 200 µg/mL. The MIC (Escherichia coli [2]) was > 200 µg/mL, the Activity (L929) was “Non-toxic” and the MIC (Staphylococcus aureus [3]) was > 200 µg/mL. For the same molecule, the MIC [5] was 100 µg/mL (≈ 205 µM) and the MIC (Pseudomonas aeruginosa) was > 200 µg/mL.

Source: ChEMBL document CHEMBL1154782, “Discovery of Trp-His and His-Arg analogues as new structural classes of short antimicrobial peptides” (J Med Chem, 2009)
